# Results: patent US20160108008A1, “Substituted N-(Tetrazol-5-yl)- and N-(Triazol-5-yl)arylcarboxamide Compounds and Their Use as Herbicides” (BASF SE, priority 2013, published 2016)
# Marks after values point to notes of the source that are not given here.
# Key:
# Format in all cases: in vivo
# [1] = system: Chenopodium album; assay: greenhouse post-emergence treatment, CHEAL; settings: scale 0-100
# Source text: (§1) The culture containers used were plastic flowerpots containing loamy sand with approximately 3.0% of humus as the substrate. The seeds of the test plants were sown separately for each species.
# (§2) For the post-emergence treatment, the test plants were first grown to a height of 3 to 15 cm, depending on the plant habit, and only then treated with the active ingredients which had been suspended or emulsified in water. For this purpose, the test plants were either sown directly and grown in the same containers, or they were first grown separately as seedlings and transplanted into the test containers a few days prior to treatment.
# (§3) Depending on the species, the plants were kept at 10-25° C. or 20-35° C. The test period extended over 2 to 4 weeks. During this time, the plants were tended, and their response to the individual treatments was evaluated.
# (§4) Evaluation was carried out using a scale from 0 to 100. 100 means no emergence of the plants, or complete destruction of at least the aerial moieties, and 0 means no damage, or normal course of growth. A good herbicidal activity is given at values of at least 70 and a very good herbicidal activity is given at values of at least 85.
# (§5) The plants used in the greenhouse experiments belonged to the following species:
# (§6) Following representative compounds of formula I according to Table 9 were used in post-emergence treatments in greenhouse experiments (values labeled with * result from pre-emergence experiments): […]
# [2] = system: Echinochloa crus-galli; assay: greenhouse post-emergence treatment, ECHCG; settings: scale 0-100
# Source text: as §1, §2, §3, §4, §5, §6
# [3] = system: Amaranthus retroflexus; assay: greenhouse post-emergence treatment, AMARE; settings: scale 0-100
# Source text: as §1, §2, §3, §4, §5, §6
# [4] = system: Amaranthus retroflexus; assay: greenhouse pre-emergence treatment, AMARE; settings: pre-emergence (value labeled *), scale 0-100
# Source text: as §1
# (§7) For the pre-emergence treatment, the active ingredients, which had been suspended or emulsified in water, were applied directly after sowing by means of finely distributing nozzles. The containers were irrigated gently to promote germination and growth and subsequently covered with transparent plastic hoods until the plants had rooted. This cover caused uniform germination of the test plants, unless this has been impaired by the active ingredients.
# as §3, §4, §5, §6
# [5] = system: Abutilon theophrasti; assay: greenhouse pre-emergence treatment, ABUTH; settings: pre-emergence (value labeled *), scale 0-100
# Source text: as §1, §7, §3, §4, §5, §6
SMILES,[%] damage to weed VI (CHEAL) ([1]; 250 g/ha) [%],[%] damage to weed VII (ECHCG) ([2]; 250 g/ha) [%],[%] damage to weed III (AMARE) ([3]; 250 g/ha),[%] damage to weed III (AMARE) ([4]; 250 g/ha),other results
CCCS(=O)(=O)c1c(Cl)cc(F)c(C(=O)Nc2nnnn2C)c1Cl [compound 24],100,100,100; %,100* %,
CCn1nnnc1NC(=O)c1c(F)cc(Cl)c([S+](C)[O-])c1Cl (stereo not drawn) [compound 32],100,100,100; %,100* %,
CCCSc1c(Cl)cc(F)c(C(=O)Nc2nnnn2C)c1Cl [compound 21],,,,,[%] damage to weed VI (CHEAL) ([1]; 243 g/ha): 100%; [%] damage to weed VII (ECHCG) ([2]; 243 g/ha): 100%; [%] damage to weed III (AMARE) ([3]; 243 g/ha): 100%; [%] damage to weed I (ABUTH) ([5]; 243 g/ha): 100* %
CSc1ccc(Cl)c(C(=O)Nc2nnnn2C)c1Cl [compound 82],100,98,100; %,100* %,
CCSc1c(F)cc(Cl)c(C(=O)Nc2nnnn2C)c1F [compound 97],100,100,100; %,100* %,
CCC[S+]([O-])c1c(Cl)cc(F)c(C(=O)Nc2nnnn2C)c1Cl (stereo not drawn) [compound 23],100,98,100; %,98* %,
CCS(=O)(=O)c1c(Cl)cc(F)c(C(=O)Nc2nnnn2CCOC)c1Cl [compound 80],,,,,[%] damage to weed VI (CHEAL) ([1]; 125 g/ha): 100%; [%] damage to weed VII (ECHCG) ([2]; 125 g/ha): 100%; [%] damage to weed III (AMARE) ([3]; 125 g/ha): 100%; [%] damage to weed I (ABUTH) ([5]; 125 g/ha): 100* %
"Cn1nnnc1NC(=O)c1c(F)cc(Cl)c(OCCC(F)(F)F)c1Cl [compound 91, 2,4-Dichloro-6-fluoro-N-(1-methyltetrazol-5-yl)-3-(3,3,3-trifluoropropoxy)benzamide]",100,100,100; %,100* %,
CC[S+]([O-])c1c(Cl)cc(F)c(C(=O)Nc2nnnn2CCOC)c1Cl (stereo not drawn) [compound 77],,,,,[%] damage to weed VI (CHEAL) ([1]; 125 g/ha): 100%; [%] damage to weed VII (ECHCG) ([2]; 125 g/ha): 100%; [%] damage to weed III (AMARE) ([3]; 125 g/ha): 100; %; [%] damage to weed III (AMARE) ([4]; 125 g/ha): 100* %
CCCS(=O)(=O)c1c(Cl)cc(F)c(C(=O)Nc2ncnn2C)c1Cl [compound 26],,,,,[%] damage to weed VI (CHEAL) ([1]; 500 g/ha): 100%; [%] damage to weed VII (ECHCG) ([2]; 500 g/ha): 98%; [%] damage to weed III (AMARE) ([3]; 500 g/ha): 100; %; [%] damage to weed III (AMARE) ([4]; 500 g/ha): 98* %
"CCn1nnnc1NC(=O)c1c(F)cc(Cl)c(OCCC(F)(F)F)c1Cl [compound 92, 2,4-Dichloro-N-(1-ethyltetrazol-5-yl)-6-fluoro-3-(3,3,3-trifluoropropoxy)benzamide]",100,100,100; %,100* %,
CCSc1c(Cl)cc(Cl)c(C(=O)Nc2nnnn2C)c1Cl [compound 41],100,100,100; %,100* %,
Cn1ncnc1NC(=O)c1c(F)cc(Cl)c([S+](C)[O-])c1Cl (stereo not drawn) [cpd. 5],100,98,100%,,
CCCSc1c(Cl)cc(F)c(C(=O)Nc2ncnn2C)c1Cl [compound 22],100,100,100: %,80* %,
COCCn1nnnc1NC(=O)c1c(Cl)cc(Cl)c(SC)c1Cl [compound 75],100,100,100; %,100* %,
"Cn1ncnc1NC(=O)c1c(F)cc(Cl)c(OCCC(F)(F)F)c1Cl [compound 90, 2,4-Dichloro-6-fluoro-N-(2-methyl-1,2,4-triazol-3-yl)-3-(3,3,3-trifluoropropoxy)benzamide]",100,90,,,
CCSc1c(Cl)cc(F)c(C(=O)Nc2nnnn2CC)c1Cl [compound 64],,,,,[%] damage to weed VI (CHEAL) ([1]; 500 g/ha): 100%; [%] damage to weed VII (ECHCG) ([2]; 500 g/ha): 100%; [%] damage to weed III (AMARE) ([3]; 500 g/ha): 100; %; [%] damage to weed III (AMARE) ([4]; 500 g/ha): 100* %

SMILES,[%] damage to weed VI (CHEAL) ([1]; 250 g/ha) [%],[%] damage to weed VII (ECHCG) ([2]; 250 g/ha) [%],[%] damage to weed III (AMARE) ([3]; 250 g/ha),[%] damage to weed III (AMARE) ([4]; 250 g/ha),other results
CCOc1c(Cl)cc(F)c(C(=O)Nc2nnnn2C)c1Cl [compound 18],100,98,85%,,[%] damage to weed I (ABUTH) ([5]; 250 g/ha): 100* %
COc1c(Cl)cc(F)c(C(=O)Nc2nnnn2C)c1Cl [compound 9],,,,,[%] damage to weed VI (CHEAL) ([1]; 196 g/ha): 100%; [%] damage to weed III (AMARE) ([3]; 196 g/ha): 100%; [%] damage to weed I (ABUTH) ([5]; 196 g/ha): 100* %
CSc1c(F)cc(Cl)c(C(=O)Nc2nnnn2C)c1F [compound 95],100,100,100; %,95* %,
CCOc1c(Cl)cc(F)c(C(=O)Nc2nnnn2CCOC)c1Cl [compound 19],100,100,100%,,[%] damage to weed I (ABUTH) ([5]; 250 g/ha): 100* %
CCS(=O)(=O)c1c(Cl)cc(Cl)c(C(=O)Nc2nnnn2C)c1Cl [compound 73],100,100,100; %,98* %,
COCCn1nnnc1NC(=O)c1c(F)cc(Cl)c([S+](C)[O-])c1Cl (stereo not drawn) [compound 74],,,,,[%] damage to weed VI (CHEAL) ([1]; 110 g/ha): 100%; [%] damage to weed VII (ECHCG) ([2]; 110 g/ha): 100%; [%] damage to weed III (AMARE) ([3]; 110 g/ha): 100%; [%] damage to weed I (ABUTH) ([5]; 110 g/ha): 98* %
COCCn1nnnc1NC(=O)c1c(Cl)ccc(SC)c1Cl [compound 83],100,100,100; %,100* %,
CCSc1c(Cl)cc(F)c(C(=O)Nc2nnnn2CCOC)c1Cl [compound 79],100,100,100; %,100* %,
CCC[S+]([O-])c1c(Cl)cc(F)c(C(=O)Nc2ncnn2C)c1Cl (stereo not drawn) [compound 27],,,,,[%] damage to weed VI (CHEAL) ([1]; 244 g/ha): 100%; [%] damage to weed VII (ECHCG) ([2]; 244 g/ha): 98%; [%] damage to weed III (AMARE) ([3]; 244 g/ha): 100; %; [%] damage to weed III (AMARE) ([4]; 244 g/ha): 85* %
COCCn1nnnc1NC(=O)c1c(Cl)cc(F)c(SC)c1F [compound 99],100,100,100; %,100* %,
CCSc1ccc(Cl)c(C(=O)Nc2nnnn2C)c1Cl [compound 88],100,100,,,
"COCCn1nnnc1NC(=O)c1c(F)cc(Cl)c(OCCC(F)(F)F)c1Cl [compound 89, 2,4-Dichloro-6-fluoro-N-[1-(2-methoxyethyl)tetrazol-5-yl]-3-(3,3,3-trifluoropropoxy)-benzamide]",100,100,100; %,100* %,
COCCOc1ccc(Cl)c(C(=O)Nc2ncnn2C)c1Cl [compound 85],100,85,100%,,
COCCOc1c(Cl)cc(F)c(C(=O)Nc2nnnn2CCOC)c1Cl [compound 68],100,100,100; %,100* %,
CC[S+]([O-])c1c(Cl)cc(Cl)c(C(=O)Nc2nnnn2C)c1Cl (stereo not drawn) [compound 60],,,,,[%] damage to weed VI (CHEAL) ([1]; 500 g/ha): 100%; [%] damage to weed VII (ECHCG) ([2]; 500 g/ha): 98%; [%] damage to weed III (AMARE) ([3]; 500 g/ha): 100; %; [%] damage to weed III (AMARE) ([4]; 500 g/ha): 100* %
CCn1nnnc1NC(=O)c1c(F)cc(Cl)c(OCCOC)c1Cl [compound 71],100,80,98%,,[%] damage to weed I (ABUTH) ([5]; 250 g/ha): 100* %
CCSc1ccc(Cl)c(C(=O)Nc2ncnn2C)c1Cl [compound 87],100,98,100; %,98* %,
